Molecular target: NK1 receptor (Homo sapiens, UniProt P25103)
Assay: neurokinin receptor binding assay, NK1 (Ki)
Conditions: read-out: Ki (NK1)
Description: (§1) The in vitro and in vivo activity of the compounds of formula I can be determined by various procedures known in the art, such as a test for their ability to inhibit the activity of the NK1 agonist Substance P, an isolated hamster trachea NK2 assay, a test of the effect of NK1 antagonists on Substance P-induced airway microvascular leakage, measurement of NK2 activity in vivo in guinea pigs, measurement of bronchoconstriction due to NKA, and neurokinin receptor binding assay(s). Typical procedures are described in WO96/34857, published Nov. 7, 1996. NK3 activity is determined by following a procedure similar to that described in the literature, e.g., Molecular Pharmacol., 48 (1995), p. 711-716.
(§2) % Inhibition is the difference between the percent of maximum specific binding (MSB) and 100%. The percent of MSB is defined by the following equation, wherein "dpm" is disintegrations per minute: [formula]
(§3) Using the test procedures described above, the following 35 data (Ki) were obtained for exemplified compounds: […]

Chain of NK1 receptor (P25103 whole entry): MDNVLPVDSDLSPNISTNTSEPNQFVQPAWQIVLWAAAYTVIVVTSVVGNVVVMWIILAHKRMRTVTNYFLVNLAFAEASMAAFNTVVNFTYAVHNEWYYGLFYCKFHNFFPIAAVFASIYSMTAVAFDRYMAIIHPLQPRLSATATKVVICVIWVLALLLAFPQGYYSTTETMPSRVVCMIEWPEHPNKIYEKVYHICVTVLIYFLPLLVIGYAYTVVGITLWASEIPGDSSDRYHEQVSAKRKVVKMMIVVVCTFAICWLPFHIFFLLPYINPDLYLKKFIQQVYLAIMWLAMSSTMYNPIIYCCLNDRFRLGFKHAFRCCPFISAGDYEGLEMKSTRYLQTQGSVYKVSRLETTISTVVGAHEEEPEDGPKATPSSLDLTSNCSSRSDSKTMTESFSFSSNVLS

| Ki [nM] | SMILES |
| --- | --- |
| 0.6 | CNC(=O)CC1CCCN(C2CCN(CCC(C(CN(C)C(=O)c3cc(C)cc(C)c3)=NOC)c3ccc(Cl)c(Cl)c3)CC2)C1=O (centres unmarked) [Example 35] |
| 0.6 | CONC(=O)CON=C(CN(C)C(=O)c1cc(C)cc(C)c1)C(CCN1CCC(N2CCCC(CC(=O)N(C)C)C2=O)CC1)c1ccc(Cl)c(Cl)c1 (centres unmarked) [Example 19E] |
| 3.3 | CN(CC(=NOCCCS(=O)(=O)O)C(CCN1CCC(N2CCCCC2=O)CC1)c1ccc(Cl)c(Cl)c1)C(=O)c1cc(Cl)cc(Cl)c1 (centres unmarked) [Example 17K] |
| 0.5 | CON=C(CN(C)C(=O)c1cc(Cl)cc(Cl)c1)C(CCN1CCC(N2CCCC(CC(=O)N3CCC(O)CC3)C2=O)CC1)c1ccc(Cl)c(Cl)c1 (centres unmarked) [Example 12L] |
| 0.2 | CN(CC(=NO)C(CCN1CCC(N2CCCC(CC(N)=O)C2=O)CC1)c1ccc(Cl)c(Cl)c1)C(=O)c1cc(Cl)cc(Cl)c1 (centres unmarked) [Example 16A] |
| 0.4 | Cc1cc(C)cc(C(=O)N(C)CC(=NOCC(N)=NO)C(CCN2CCC(N3CCCCC3=O)CC2)c2ccc(Cl)c(Cl)c2)c1 (centres unmarked) [Example 18E] |
| 6 | COc1cc(C(=O)N(C)CC(=NOCC(N)=NO)C(CCN2CCC(N3CCCCC3=O)CC2)c2ccc(Cl)c(Cl)c2)cc(OC)c1C (centres unmarked) [Example 21B] |
| 0.7 | CN(CC(=NOCC(N)=NO)C(CCN1CCC(N2CCCCC2=O)CC1)c1ccc(Cl)c(Cl)c1)C(=O)c1cc(Cl)cc(Cl)c1 (centres unmarked) [Example 17E] |
| 0.5 | CN(CC(=NO)C(CCN1CCC(N2CCCCC2=O)CC1)c1ccc(Cl)c(Cl)c1)C(=O)c1cc(Cl)cc(Cl)c1 (centres unmarked) [Example 17A] |
| 0.9 | CNC(=O)C[C@H]1CCCN(C2CCN(CC[C@@H](C(CN(C)C(=O)c3cc(Cl)cc(Cl)c3)=NOC)c3ccc(Cl)c(Cl)c3)CC2)C1=O [Example 13B] |
| 0.7 | CON=C(CN(C)C(=O)c1cc(C)cc(Cl)c1)C(CCN1CCC(N2CCCC(CC(=O)N(C)C)C2=O)CC1)c1ccc(Cl)c(Cl)c1 (centres unmarked) [Example 27] |
| 0.5 | CNC(=O)CON=C(CN(C)C(=O)c1cc(Cl)cc(Cl)c1)C(CCN1CCC(N2CCCC(CC(=O)NC)C2=O)CC1)c1ccc(Cl)c(Cl)c1 (centres unmarked) [Example 15E] |
| 0.4 | CON=C(CN(C)C(=O)c1cc(Cl)cc(Cl)c1)[C@H](CCN1CCC(N2CCC[C@H](CC(=O)O)C2=O)CC1)c1ccc(Cl)c(Cl)c1 [Example 13E] |
| 2.6 | CNC(=O)C[C@H]1CCCN(C2CC[N+]([O-])(CC[C@@H](C(CN(C)C(=O)c3cc(Cl)cc(Cl)c3)=NOC)c3ccc(Cl)c(Cl)c3)CC2)C1=O (some centres unmarked) [Example 13H] |
| 0.2 | CNC(=O)CC1CCCN(C2CCN(CCC(C(CN(C)C(=O)c3cc(Cl)cc(Cl)c3)=NOCCCS(=O)(=O)O)c3ccc(Cl)c(Cl)c3)CC2)C1=O (centres unmarked) [Example 15H] |
| 1.5 | CON=C(CN(C)C(=O)c1cc(Cl)cc(Cl)c1)[C@H](CC[N+]1([O-])CCC(N2CCCCC2=O)CC1)c1ccc(Cl)c(Cl)c1 (some centres unmarked) [Example 13G] |
| 0.4 | CNC(=O)CC1CCCN(C2CCN(CCC(C(CN(C)C(=O)c3cc(Cl)cc(Cl)c3)=NOCC(N)=O)c3ccc(Cl)c(Cl)c3)CC2)C1=O (centres unmarked) [Example 15D] |
| 0.2 | CNC(=O)CC1CCCN(C2CCN(CCC(C(CN(C)C(=O)c3cc(Cl)cc(Cl)c3)=NOCC(N)=NOC)c3ccc(Cl)c(Cl)c3)CC2)C1=O (centres unmarked) [Example 15M] |

| SMILES | Ki [nM] |
| --- | --- |
| CON=C(CN(C)C(=O)c1cc(C)nc(Cl)c1)C(CCN1CCC(O)(c2ccccc2)CC1)c1ccc(Cl)c(Cl)c1 (centres unmarked) [Example 30A] | 1.4 |

Molecular target: T1, NK2 receptor (Homo sapiens, UniProt P21452)
T1 sequence (P21452 1-398): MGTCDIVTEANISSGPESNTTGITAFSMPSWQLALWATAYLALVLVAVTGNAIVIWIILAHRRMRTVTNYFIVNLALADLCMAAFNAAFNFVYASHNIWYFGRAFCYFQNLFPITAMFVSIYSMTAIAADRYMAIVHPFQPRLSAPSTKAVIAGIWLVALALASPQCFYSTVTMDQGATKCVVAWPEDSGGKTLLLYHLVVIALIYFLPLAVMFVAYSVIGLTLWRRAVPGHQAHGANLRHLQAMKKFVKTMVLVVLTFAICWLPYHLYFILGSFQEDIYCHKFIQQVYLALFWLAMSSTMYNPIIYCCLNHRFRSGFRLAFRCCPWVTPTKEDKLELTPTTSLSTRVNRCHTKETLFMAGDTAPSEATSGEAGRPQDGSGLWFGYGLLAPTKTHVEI
Assay: neurokinin receptor binding assay, NK2 (Ki)
Conditions: read-out: Ki (NK2)
Description: as §1, §2, §3

| Ki [nM] | SMILES |
| --- | --- |
| 0.3 | CNC(=O)CC1CCCN(C2CCN(CCC(C(CN(C)C(=O)c3cc(C)cc(C)c3)=NOC)c3ccc(Cl)c(Cl)c3)CC2)C1=O (centres unmarked) [Example 35] |
| 1.8 | CONC(=O)CON=C(CN(C)C(=O)c1cc(C)cc(C)c1)C(CCN1CCC(N2CCCC(CC(=O)N(C)C)C2=O)CC1)c1ccc(Cl)c(Cl)c1 (centres unmarked) [Example 19E] |
| 2.7 | CN(CC(=NOCCCS(=O)(=O)O)C(CCN1CCC(N2CCCCC2=O)CC1)c1ccc(Cl)c(Cl)c1)C(=O)c1cc(Cl)cc(Cl)c1 (centres unmarked) [Example 17K] |
| 0.9 | CON=C(CN(C)C(=O)c1cc(Cl)cc(Cl)c1)C(CCN1CCC(N2CCCC(CC(=O)N3CCC(O)CC3)C2=O)CC1)c1ccc(Cl)c(Cl)c1 (centres unmarked) [Example 12L] |
| 0.7 | CN(CC(=NO)C(CCN1CCC(N2CCCC(CC(N)=O)C2=O)CC1)c1ccc(Cl)c(Cl)c1)C(=O)c1cc(Cl)cc(Cl)c1 (centres unmarked) [Example 16A] |
| 0.4 | Cc1cc(C)cc(C(=O)N(C)CC(=NOCC(N)=NO)C(CCN2CCC(N3CCCCC3=O)CC2)c2ccc(Cl)c(Cl)c2)c1 (centres unmarked) [Example 18E] |
| 0.5 | COc1cc(C(=O)N(C)CC(=NOCC(N)=NO)C(CCN2CCC(N3CCCCC3=O)CC2)c2ccc(Cl)c(Cl)c2)cc(OC)c1C (centres unmarked) [Example 21B] |
| 0.7 | CN(CC(=NOCC(N)=NO)C(CCN1CCC(N2CCCCC2=O)CC1)c1ccc(Cl)c(Cl)c1)C(=O)c1cc(Cl)cc(Cl)c1 (centres unmarked) [Example 17E] |
| 3 | CN(CC(=NO)C(CCN1CCC(N2CCCCC2=O)CC1)c1ccc(Cl)c(Cl)c1)C(=O)c1cc(Cl)cc(Cl)c1 (centres unmarked) [Example 17A] |
| 0.3 | CNC(=O)C[C@H]1CCCN(C2CCN(CC[C@@H](C(CN(C)C(=O)c3cc(Cl)cc(Cl)c3)=NOC)c3ccc(Cl)c(Cl)c3)CC2)C1=O [Example 13B] |
| 1.2 | CON=C(CN(C)C(=O)c1cc(C)cc(Cl)c1)C(CCN1CCC(N2CCCC(CC(=O)N(C)C)C2=O)CC1)c1ccc(Cl)c(Cl)c1 (centres unmarked) [Example 27] |
| 1 | CNC(=O)CON=C(CN(C)C(=O)c1cc(Cl)cc(Cl)c1)C(CCN1CCC(N2CCCC(CC(=O)NC)C2=O)CC1)c1ccc(Cl)c(Cl)c1 (centres unmarked) [Example 15E] |
| 0.6 | CON=C(CN(C)C(=O)c1cc(Cl)cc(Cl)c1)[C@H](CCN1CCC(N2CCC[C@H](CC(=O)O)C2=O)CC1)c1ccc(Cl)c(Cl)c1 [Example 13E] |
| 0.4 | CNC(=O)C[C@H]1CCCN(C2CC[N+]([O-])(CC[C@@H](C(CN(C)C(=O)c3cc(Cl)cc(Cl)c3)=NOC)c3ccc(Cl)c(Cl)c3)CC2)C1=O (some centres unmarked) [Example 13H] |
| 0.4 | CNC(=O)CC1CCCN(C2CCN(CCC(C(CN(C)C(=O)c3cc(Cl)cc(Cl)c3)=NOCCCS(=O)(=O)O)c3ccc(Cl)c(Cl)c3)CC2)C1=O (centres unmarked) [Example 15H] |
| 0.4 | CON=C(CN(C)C(=O)c1cc(Cl)cc(Cl)c1)[C@H](CC[N+]1([O-])CCC(N2CCCCC2=O)CC1)c1ccc(Cl)c(Cl)c1 (some centres unmarked) [Example 13G] |
| 0.5 | CNC(=O)CC1CCCN(C2CCN(CCC(C(CN(C)C(=O)c3cc(Cl)cc(Cl)c3)=NOCC(N)=O)c3ccc(Cl)c(Cl)c3)CC2)C1=O (centres unmarked) [Example 15D] |
| 0.3 | CNC(=O)CC1CCCN(C2CCN(CCC(C(CN(C)C(=O)c3cc(Cl)cc(Cl)c3)=NOCC(N)=NOC)c3ccc(Cl)c(Cl)c3)CC2)C1=O (centres unmarked) [Example 15M] |

| SMILES | Ki [nM] |
| --- | --- |
| CON=C(CN(C)C(=O)c1cc(C)nc(Cl)c1)C(CCN1CCC(O)(c2ccccc2)CC1)c1ccc(Cl)c(Cl)c1 (centres unmarked) [Example 30A] | 1.9 |
